# Earlier results in US20080161385A1, “Composition Inhibiting Sex Hormone-Binding Globulin” (FUJI OIL COMPANY, LIMITED, priority 2004, published 2008).
# System: SHBG
# Conditions: cell test, literature
structure (smiles),measurement,value
O=c1c(-c2ccc(O)cc2)coc2cc(O)cc(O)c12 [genistein],Production of SHBG,stimulates production of SHBG
